From US20200289474A1, “METHODS OF TREATING PAIN WITH A THIAZOLINE ANTI-HYPERALGESIC” (priority 2019, published 2020)
Several values for one entry are separate records, joined by “and”; a condition that tells them apart may be missing. Equal values may be shown once. Read-outs that look alike come from different tables or passages of the source.

Tests used:
[1] = test system: incision-induced hyperalgesia; test: Brennan protocol, treatment paradigm (established hyperalgesia); format: in vivo, rat
Source text: Two incisional pain models were used to assess Compound 1 effects on hyperalgesia. The first model is referred to as the Brennan model in which, under anesthesia, a 1 cm longitudinal incision to the skin and underlying fascia of a rat hindpaw is made. The second is a variation but is a more invasive procedure in which the skin and muscle are spread apart using forceps which creates a longer-lasting hypersensitivity.
Using the Brennan protocol and a treatment paradigm in rat, Compound 1 (10 and 30 mg/kg PO), morphine (3 mg/kg SC) or vehicle were administered daily at 24 h post-incision, and again at 48 and 72 h post-incision. Mechanical thresholds were obtained at 1 h and 2 h post-dose in all cohorts on all days.

[2] = test system: STZ-induced mechanical allodynia; test: STZ-induced diabetic rats, subsequent study; format: in vivo, rat
Protocol: Experiments were conducted to determine the effect of Compound 1 in streptozotocin (STZ)-induced diabetic rats. In the first experiment, after obtaining mechanical threshold baselines, STZ (50 mg/kg IV) was administered (Day −7). Two days later, blood glucose levels were measured and animals that were hyperglycemic (>250 mg/dL) continued in the study. On Day 0 the baseline for mechanical thresholds prior to dosing with test articles was established for the rats. Compound 1 (10, 30, and 100 mg/kg PO), gabapentin (100 mg/kg PO) or vehicle was then administered daily for 5 days. On Day 0 mechanical thresholds were obtained at 1, 3, and 6 h post-dose. On Day 1 mechanical thresholds were measured immediately prior to dosing and then 3 h post-dose. The same regimen was followed on Day 3.
In a subsequent study, the same STZ paradigm was followed. However, in addition to the 100 mg/kg Compound 1 group, two additional cohorts received the Compound 1 100 mg/kg dose split into two or three doses per day with 50 mg/kg BID and 33 mg/kg TID. In addition to the gabapentin (100 mg/kg PO) group, a separate cohort received duloxetine (30 mg/kg PO). Additionally, in this study mechanical threshold testing was implemented every day immediately prior to dosing and 2 h post-dose for 7 days.

[3] = rat 7 day repeat IV dose study; format: in vivo; details: 7 day IV
Protocol: In a third study, SD rats (3/sex/group) were administered Compound 1 IV via the tail vein for 7 days at doses of 0, 75 or 150 mg/kg/day. The vehicle was 15% dimethylacetamide, 85% phosphate buffered saline. Blood was collected from all surviving animals for toxicokinetic analysis approximately 2 hours after the last dose on Day 7.

[4] = dog 28-day repeat dose PO study; format: in vivo; details: for Cmax: dog 28 Day PO
Protocol: Beagle dogs (4/sex/group plus 2/sex/group for control and high dose animals for recovery) were administered daily doses of 0, 100, 250 or 400 mg/kg/day of Compound 1 in 0.5% HPMC. […] Dogs in Group 1 (Vehicle Control) were bled once at approximately 2-4 hours post-dose on those days.

stability in plasma = format: in vitro ADME; details: human plasma
[5] = stability in plasma from a variety of species; format: in vitro ADME
OAT3 = target: T1, OAT3 (Homo sapiens, UniProt Q8TCC7); test: transporter inhibition, HEK293 cells, probe accumulation; format: in vitro ADME
T1 construct: expressed in transfected cells; host or cells: HEK293 cells
T1 sequence (Q8TCC7 1-542): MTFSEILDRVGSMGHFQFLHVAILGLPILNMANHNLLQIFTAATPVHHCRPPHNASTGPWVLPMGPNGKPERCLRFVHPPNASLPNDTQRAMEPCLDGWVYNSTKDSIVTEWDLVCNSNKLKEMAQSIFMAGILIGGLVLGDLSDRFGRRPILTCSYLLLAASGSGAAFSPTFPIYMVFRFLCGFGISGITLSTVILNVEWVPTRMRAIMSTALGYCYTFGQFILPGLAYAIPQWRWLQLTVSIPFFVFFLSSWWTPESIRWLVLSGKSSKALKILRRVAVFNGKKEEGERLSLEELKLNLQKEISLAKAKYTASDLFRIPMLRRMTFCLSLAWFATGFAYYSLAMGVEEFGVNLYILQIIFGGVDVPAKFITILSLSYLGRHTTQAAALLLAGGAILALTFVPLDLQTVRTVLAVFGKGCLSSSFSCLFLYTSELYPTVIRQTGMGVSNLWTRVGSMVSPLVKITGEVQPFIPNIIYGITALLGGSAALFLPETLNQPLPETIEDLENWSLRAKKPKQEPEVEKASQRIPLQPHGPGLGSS

MDCKII control cells = test: cytotoxicity by lactate dehydrogenase (LDH) release; format: cell-based
[6] = rat 7-day repeat dose PO study (toxicokinetics)

CC1(C)SC(Nc2ccccc2O)=N[C@@H]1C(=O)O.Cl [Compound 1, (R)-2-(2-hydroxyphenylamino)-5,5-dimethyl-4,5-dihydrothiazole-4-carboxylic acid mono-hydrochloride]
reversal of hyperalgesia ([1]; 10 and 30 mg/kg PO, Day 2, 1 h and 2 h post-dosing): full reversal of hyperalgesia
hyperalgesia ([1]; 10 and 30 mg/kg PO, Day 3 prior to dosing): did not show hyperalgesia
hyperalgesia ([1]; low- and high-dose, Day 3 after dosing): prevented/reversed hyperalgesia completely
reversal of hyperalgesia ([1]; low-dose (10 mg/kg PO), Day 1, 2 h post-dose): partial reversal
difference between dosing regimens ([2]; 100 mg/kg QD vs 50 mg/kg BID vs 33 mg/kg TID): no clear difference
reversal of allodynia ([2]; 100 mg/kg QD, 50 mg/kg BID, 33 mg/kg TID PO, 7 days, statistical significance from Day 1): reversed allodynia
Conc in rat plasma ([3]; 75 mg/kg, F, 2 h after last dose Day 7, individual animals, mono-hydrochloride, 75 mg/kg): 2670 ng/mL and 3250 ng/mL and 3180 ng/mL
concentration at 2 h ([3]; 75 mg/kg, F, 2 h after last dose Day 7, individual animals, mono-hydrochloride, 75 mg/kg, read-out: Conc in rat plasma): 12.20 µM and 11.94 µM
Conc in rat plasma ([3]; 75 mg/kg, M, 2 h after last dose Day 7, individual animals, mono-hydrochloride, 75 mg/kg): 2350 ng/mL and 2380 ng/mL and 4310 ng/mL
concentration at 2 h ([3]; 75 mg/kg, M, 2 h after last dose Day 7, individual animals, mono-hydrochloride, 75 mg/kg, read-out: Conc in rat plasma): 8.94 µM and 16.18 µM
Conc in rat plasma ([3]; 150 mg/kg, F, 2 h after last dose Day 7, individual animals, mono-hydrochloride, 150 mg/kg): 5990 ng/mL and 2430 ng/mL and 5530 ng/mL
concentration at 2 h ([3]; 150 mg/kg, F, 2 h after last dose Day 7, individual animals, mono-hydrochloride, 150 mg/kg, read-out: Conc in rat plasma): 22.49 µM and 9.12 µM and 20.76 µM
Conc in rat plasma ([3]; 150 mg/kg, M, 2 h after last dose Day 7, individual animals, mono-hydrochloride, 150 mg/kg): 4280 ng/mL and 6910 ng/mL and 6560 ng/mL
concentration at 2 h ([3]; 150 mg/kg, M, 2 h after last dose Day 7, individual animals, mono-hydrochloride, 150 mg/kg, read-out: Conc in rat plasma): 25.95 µM and 24.63 µM
concentration at 2 h ([3]; female, Sprague-Dawley (SD), rat, plasma, iv, 75 mg/kg, 75 mg/kg, F, 2 h after last dose Day 7, individual animals, read-out: Conc in rat plasma): 2670 ng/mL and 10 µM
concentration at 2 h ([3]; female, Sprague-Dawley (SD), rat, plasma, iv, 75 mg/kg, 75 mg/kg, F, 2 h after last dose Day 7, read-out: Mean Conc in rat plasma): 3030 ng/mL
concentration at 2 h ([3]; female, Sprague-Dawley (SD), rat, plasma, iv, 150 mg/kg, 150 mg/kg, F, 2 h after last dose Day 7, read-out: Mean Conc in rat plasma): 4650 ng/mL
concentration at 2 h ([3]; male, Sprague-Dawley (SD), rat, plasma, iv, 75 mg/kg, 75 mg/kg, M, 2 h after last dose Day 7, individual animals, read-out: Conc in rat plasma): 2350 ng/mL and 8.82 µM
concentration at 2 h ([3]; male, Sprague-Dawley (SD), rat, plasma, iv, 75 mg/kg, 75 mg/kg, M, 2 h after last dose Day 7, read-out: Mean Conc in rat plasma): 3010 ng/mL
concentration at 2 h ([3]; male, Sprague-Dawley (SD), rat, plasma, iv, 150 mg/kg, 150 mg/kg, M, 2 h after last dose Day 7, individual animals, read-out: Conc in rat plasma): 4280 ng/mL and 16.1 µM
concentration at 2 h ([3]; male, Sprague-Dawley (SD), rat, plasma, iv, 150 mg/kg, 150 mg/kg, M, 2 h after last dose Day 7, read-out: Mean Conc in rat plasma): 5920 ng/mL
Tmax at 28 days ([4]; both sexes, beagle, dog, in vivo, po, dog 28-day PO, all animals, read-out: median tmax): 1 h
Tmax at 28 days ([4]; both sexes, beagle, dog, in vivo, po, dog 28-day study (summary), read-out: Tmax): ≤ 1 h
Cmax at 28 days ([4]; both sexes, beagle, in vivo, po, dog 28-day pivotal study, at some doses): > 100000 ng/mL
mean t1/2 ([4]; both, beagle, dog, in vivo, po): 3.5 h
Cmax ([4]; Day 1, 100 mg/kg, F): 69300 ng/mL
Cmax ([4]; Day 1, 100 mg/kg, M): 49900 ng/mL
Cmax ([4]; Day 1, 250 mg/kg, F): 101000 ng/mL
Cmax ([4]; Day 1, 250 mg/kg, M): 104000 ng/mL
Cmax ([4]; Day 1, 400 mg/kg, F): 129000 ng/mL
Cmax ([4]; Day 1, 400 mg/kg, M): 128000 ng/mL
Cmax ([4]; Day 15, 100 mg/kg, F): 53000 ng/mL
Cmax ([4]; Day 15, 100 mg/kg, M): 50400 ng/mL
Cmax ([4]; Day 15, 250 mg/kg, F): 94600 ng/mL
Cmax ([4]; Day 15, 250 mg/kg, M): 88000 ng/mL
Cmax ([4]; Day 15, 400 mg/kg, F): 123000 ng/mL
Cmax ([4]; Day 15, 400 mg/kg, M): 112000 ng/mL
Cmax ([4]; Day 28, 100 mg/kg, F): 60800 ng/mL
Cmax ([4]; Day 28, 100 mg/kg, M): 45000 ng/mL
Cmax ([4]; Day 28, 250 mg/kg, F): 89500 ng/mL
Cmax ([4]; Day 28, 250 mg/kg, M): 105000 ng/mL
Cmax ([4]; Day 28, 400 mg/kg, F): 131000 ng/mL
Cmax ([4]; Day 28, 400 mg/kg, M): 125000 ng/mL
stability in plasma (stability in plasma): stable
stability in plasma [5]: stable
inhibition (OAT3): weakly inhibits
percent cytotoxicity (LDH release) (MDCKII control cells; 100 μM): 31.3%
percent cytotoxicity (LDH release) (MDCKII control cells; 600 μM): 33.6%
MTD ([6]; female rats, oral gavage, 7 days): 2000 mg/kg
Cmax ([6]; rat 7 Day PO, 2000 mg/kg, Seventh Daily Dose, mean): 119000 ng/mL
